# Results from patent US20200315233A1, “METHODS AND COMPOSITIONS FOR TREATMENT OF HYPERCALCIURIA AND NEPHROLITHIASIS” (Ana Pharmaceuticals, Inc., priority 2016, published 2020).
# Key:
# [1] = tested on: patients with nephrolithiasis that were found to have hypercalciuria (>200 mg/24 hr); assay: 24 hour urine calcium before and on vitamin K2 (MK7, MK4) in nephrolithiasis patients with hypercalciuria; format: in vivo, human
# Excerpt: Patients with hypercalciuria who were not on anticoagulants were routinely recommended vitamin K2 supplementation. […] All patients also received standard treatments for any other stone risk factor found in their work-up. As is routine, these patients were asked to repeat the 24 hr urine test, to evaluate response to treatment. […] This compared favorably to the 30-50% expected decrease in calcium when a thiazide diuretic is prescribed. See Martins, M. C., et al., Br J Urol, 1996. 78(2): p. 176-80. Furthermore, the calcium lowering effect of vitamin K2 was independent of the presence and treatment of other stone risk factors.
# The average decrease in urine calcium in all eight patients was about 43%. […] (Table 1)
# [2] = tested on: hypercalciuric subjects; conditions: cited from earlier work
# [3] = MK7 100-150 mcg daily or bid for at least 3 weeks
compound,measurement,setting,value
CC(C)=CCC/C(C)=C/CC/C(C)=C/CC/C(C)=C/CC1=C(C)C(=O)c2ccccc2C1=O [MK4],"% difference of urine calcium, high dose MK4 vs low dose MK7","[1]; F 74, MK4 15 mg daily vs MK7 120 mcg daily, same background",−40%
same,High Dose MK4 Urine Calcium,"[1]; F 74, same background regimen, changed from MK7 120 mcg daily to MK4 15 mg daily",191 mg/24 hr
same,additional decrease in 24 hour urine calcium excretion,"[1]; one patient, change from MK7 120 mcg daily to MK4 15 mg daily",about 40%
CC(C)=CCC/C(C)=C/CC/C(C)=C/CC/C(C)=C/CC/C(C)=C/CC/C(C)=C/CC/C(C)=C/CC1=C(C)C(=O)c2ccccc2C1=O [MK7],On Vitamin K Urine Calcium,"[1]; Case 1, no prior regimen, before 650 mg/24 hr, on allopurinol 300 mg daily + MK7 100 mcg daily",262 mg/24 hr
same,% diff of urine calcium,"[1]; Case 1, on allopurinol 300 mg daily + MK7 100 mcg daily vs before vitamin K",−60%
same,% diff of urine calcium,"[1]; Case 2, MK7 50 mcg bid with KCitrate, MgOxide, MgCitrate, Vitamin B6, allopurinol vs before vitamin K",−54%
same,On Vitamin K Urine Calcium,"[1]; Case 2, no prior regimen, before 312 mg/24 hr, on KCitrate 99 mg bid, MgOxide 90 mg bid, MgCitrate 90 mg bid, Vitamin B6 7.5 mg bid, allopurinol 300 mg daily, MK7 50 mcg bid",145 mg/24 hr
same,% diff of urine calcium,"[1]; Case 3, KCitrate 200 mg daily + MK7 120 mcg bid vs before vitamin K",−51%
same,On Vitamin K Urine Calcium,"[1]; Case 3, no prior regimen, before 321 mg/24 hr, on KCitrate 200 mg daily + MK7 120 mcg bid",158 mg/24 hr
same,% diff of urine calcium,"[1]; Case 4, KCitrate 1080 mg tid + MK7 100 mcg bid vs before vitamin K",−61%
same,On Vitamin K Urine Calcium,"[1]; Case 4, before KCitrate 1080 mg bid, 320 mg/24 hr, on KCitrate 1080 mg tid + MK7 100 mcg bid",124 mg/24 hr
same,On Vitamin K Urine Calcium,"[1]; Case 5, before 326 mg/24 hr on allopurinol 300 mg daily, KCitrate, MgOxide, MgCitrate, Vitamin B6, on allopurinol 100 mg daily, same background + MK7 120 mcg bid",225 mg/24 hr
same,% diff of urine calcium,"[1]; Case 6, MK7 120 mcg bid with HCTZ, KCitrate, MgOxide, MgCitrate, Vitamin B6 vs before vitamin K",+2%
same,On Vitamin K Urine Calcium,"[1]; Case 6, before HCTZ 12.5 mg daily, 332 mg/24 hr, on HCTZ 12.5 mg daily, KCitrate 99 mg bid, MgOxide 90 mg bid, MgCitrate 90 mg bid, Vitamin B6 7.5 mg bid, MK7 120 mcg bid",340 mg/24 hr
same,% diff of urine calcium,"[1]; Case 7, MK7 150 mcg daily added to stable background regimen vs before vitamin K",−73%
same,On Vitamin K Urine Calcium,"[1]; Case 7, before 314 mg/24 hr on KCitrate, MgOxide, MgCitrate, Vitamin B6, HCTZ 25 mg bid, prednisone, vitD3, allopurinol, same regimen + MK7 150 mcg daily",84 mg/24 hr
same,% diff of urine calcium,"[1]; Case 8, MK7 120 mcg daily with CaCitrate, KCitrate, MgOxide, MgCitrate, Vitamin B6 vs before vitamin K",−15%
same,On Vitamin K Urine Calcium,"[1]; Case 8, before CaCitrate 630 mg bid, 376 mg/24 hr, on CaCitrate 630 mg tid, KCitrate 99 mg bid, MgOxide 90 mg bid, MgCitrate 90 mg bid, Vitamin B6 7.5 mg bid, MK7 120 mcg daily",321 mg/24 hr
same,Low Dose MK7 UCa,"[1]; F 74, CaCitrate 630 mg tid, KCitrate 99 mg bid, MgOxide 90 mg bid, MgCitrate 90 mg bid, Vitamin B6 7.5 mg bid, MK7 120 mcg daily",321 mg/24 hr
same,average decrease in urine calcium in all eight patients,[1]; [3],about 43%
same,increase in urinary calcium in the one patient that showed no response,[1]; [3],2%
same,patients that exhibited a decrease in urinary calcium of greater than about 50%,[1]; [3],5 out of 8
same,"% diff of urine calcium, mean","[1]; mean of cases 1-8, on vitamin K (MK7) vs before",−43%
same,"% diff of urine calcium, median","[1]; median of cases 1-8, on vitamin K (MK7) vs before",−52%
same,average decrease in the excretion of calcium in the urine,"[1]; seven of the eight patients, 24 hr urine",49%
CC1=C(C/C=C(\C)CCC[C@H](C)CCC[C@H](C)CCCC(C)C)C(=O)c2ccccc2C1=O [vitamin K1],subjects that had a decrease in urinary calcium,[2]; hypercalciuric subjects,60%
same,average reduction in urinary calcium,[2]; patients with a similar level of pre-treatment hypercalciuria,less than 15%
vitamin K2,decrease of urinary calcium excretion,"[1]; cases 1, 2 and 3, vitamin K administered together with other agents",> 50%
same,decrease in urine calcium levels,"[1]; many patients, within a month of therapy",more than 40%
